Measurements from US9006221B2, “Method of modulating ship activity” (H. Lee Moffitt Cancer Center and Reserach Institute, Inc., priority 2008, dated 2015).

Molecular target: T1, SHIP2 (Homo sapiens, UniProt O15357)
T1 sequence (O15357 1-1258): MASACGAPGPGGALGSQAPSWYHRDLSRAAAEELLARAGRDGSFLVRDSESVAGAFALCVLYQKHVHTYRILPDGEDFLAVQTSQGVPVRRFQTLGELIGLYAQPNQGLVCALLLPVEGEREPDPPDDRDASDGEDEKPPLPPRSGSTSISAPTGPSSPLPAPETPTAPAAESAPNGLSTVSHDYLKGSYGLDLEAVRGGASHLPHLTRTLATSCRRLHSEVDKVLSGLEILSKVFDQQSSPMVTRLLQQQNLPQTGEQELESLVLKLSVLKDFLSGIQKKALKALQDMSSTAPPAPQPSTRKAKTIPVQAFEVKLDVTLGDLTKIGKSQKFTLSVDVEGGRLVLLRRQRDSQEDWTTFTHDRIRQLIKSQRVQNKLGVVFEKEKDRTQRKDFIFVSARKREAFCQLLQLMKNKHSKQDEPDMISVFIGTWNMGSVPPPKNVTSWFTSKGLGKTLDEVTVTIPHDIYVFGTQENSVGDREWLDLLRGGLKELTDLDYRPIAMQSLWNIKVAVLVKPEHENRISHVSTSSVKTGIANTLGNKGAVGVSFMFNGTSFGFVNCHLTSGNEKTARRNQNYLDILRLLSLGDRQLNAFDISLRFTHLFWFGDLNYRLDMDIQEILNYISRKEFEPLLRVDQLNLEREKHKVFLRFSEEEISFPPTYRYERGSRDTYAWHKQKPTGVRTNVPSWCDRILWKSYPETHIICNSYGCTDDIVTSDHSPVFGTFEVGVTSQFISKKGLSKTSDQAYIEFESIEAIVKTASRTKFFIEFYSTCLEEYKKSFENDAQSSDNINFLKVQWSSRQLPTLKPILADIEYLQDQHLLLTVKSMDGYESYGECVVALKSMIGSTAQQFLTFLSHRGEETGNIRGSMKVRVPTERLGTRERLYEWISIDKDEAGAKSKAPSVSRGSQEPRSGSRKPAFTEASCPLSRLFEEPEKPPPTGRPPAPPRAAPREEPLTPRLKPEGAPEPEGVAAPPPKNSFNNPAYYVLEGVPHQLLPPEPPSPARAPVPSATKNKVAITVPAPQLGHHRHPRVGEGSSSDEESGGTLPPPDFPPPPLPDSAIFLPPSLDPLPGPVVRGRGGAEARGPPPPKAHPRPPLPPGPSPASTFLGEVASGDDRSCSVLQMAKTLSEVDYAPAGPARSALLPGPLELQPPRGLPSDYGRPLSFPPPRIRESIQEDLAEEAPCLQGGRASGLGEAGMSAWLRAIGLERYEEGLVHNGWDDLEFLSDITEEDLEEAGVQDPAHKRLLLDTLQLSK
Test: FP assay of SHIP2 enzymatic activity
Assay type: biochemical
Source text: No Compound—FP assay conducted with purified SHIP1 or SHIP2 as indicated in the absence of inhibitor. No Enzyme—FP assay conducted in SHIP buffer and fluorescent substrate in the absence of enzyme.
Thus far, none of the inhibitors have been identified as selective for SHIP1 over SHIP2. The majority of SHIP inhibitors identified show selectivity for 5′ inositol phosphatases and thus might be used to target SHIP1 or SHIP2 activity.
Assay of SHIP1 enzymatic activity: A fluorescent polarization (FP) assay that detects the 5′-inositol phosphatase activity of SHIP1 was developed based on a previously established protocol [Drees B E, et al., Comb Chem High Throughput Screen (2003) 6(4):321-330] and was obtained from Echelon Biosciences (Salt Lake City, USA). Modifications of the protocol included the application of SHIP1 in the assay and an increase in the concentration of MgCl2 to […] to maximize the activity of SHIP1 in this assay. Each enzymatic reaction was performed in a 96 well working plate and added in the following order and concentration: Recombinant SHIP1 (0.1 μg) in PBS+20 mM MgCl2, 100 μM of each individual compound from the NCI Diversity Set and then PI(3,4,5)P3 substrate diluted 1:10 in H2O. The enzymatic reaction was incubated for 30 min at room temperature. The detector, reaction mixture and probe were then combined according to the SHIP2 protocol. […]

Row | SMILES | inhibition of SHIP2 enzymatic activity
1 | CC(C)CCC[C@@H](C)[C@H]1CC[C@H]2[C@@H]3CC[C@H]4C[C@H](N)CC[C@]4(C)[C@H]3CC[C@]12C [NSC23922, (3R,5S,8R,9S,10S,13R,14S,17R)-10,13-dimethyl-17-[(2R)-6-methylheptan-2-yl]-2,3,4,5,6,7,8,9,11,12,14,15,16,17-tetradecahydro-1H-cyclopenta[a]phenanthren-3-amine] | inhibit both SHIP1 and SHIP2 enzymatic activity
2 | OC(c1cc(-c2ccccc2)nc2c1ccc1ccccc12)C1CCCCN1 (centres unmarked) [NSC13480, (2-phenylbenzo[h]quinolin-4-yl)-piperidin-2-ylmethanol] | inhibit both SHIP1 and SHIP2 enzymatic activity
